Broadly, the Ki is a measure of affinity in units of concentration, obtained from inhibition or displacement.

Non-standard residues stand in square brackets, D forms with d. Residues, ends and D or L forms follow the SMILES beside them.

Here are results for three compounds from BindingDB's records for doi:10.1124/mol.52.3.337 (The Schering Plough Research Institute, 1997).

The target in this assay is T1, Galanin receptor type 2 (Rattus norvegicus, UniProt O08726).
T1 sequence (O08726 whole entry): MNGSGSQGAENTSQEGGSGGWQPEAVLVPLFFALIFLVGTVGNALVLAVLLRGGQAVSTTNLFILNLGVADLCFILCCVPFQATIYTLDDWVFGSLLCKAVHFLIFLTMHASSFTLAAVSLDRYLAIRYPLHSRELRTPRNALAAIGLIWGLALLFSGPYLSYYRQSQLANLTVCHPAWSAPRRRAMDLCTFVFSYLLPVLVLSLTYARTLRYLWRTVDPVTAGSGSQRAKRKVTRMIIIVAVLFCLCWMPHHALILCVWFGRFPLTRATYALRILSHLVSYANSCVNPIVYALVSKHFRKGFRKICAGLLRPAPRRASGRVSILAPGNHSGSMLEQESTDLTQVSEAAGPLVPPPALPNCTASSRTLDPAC
`CC(C)C[C@H](NC(=O)[C@H](CC(C)C)NC(=O)[C@@H](Cc1c[nH]c2ccccc12)NC(=O)[C@H](Cc1ccccc1)NC(=O)[C@@H](Cc1c[nH]c2ccccc12)NC(=O)[C@H](CCC(N)=O)NC(=O)[C@H](CCC(N)=O)NC(=O)[C@@H]1CCCN1C(=O)[C@H](CCCCN)NC(=O)[C@@H]1CCCN1C(=O)[C@@H](CCCNC(=N)N)NC(=O)[C@@H]1CCCN1C(=O)CNC(=O)[C@H](CC(C)C)NC(=O)[C@H](CC(C)C)NC(=O)[C@H](Cc1ccc(O)cc1)NC(=O)CNC(=O)[C@H](C)NC(=O)[C@H](CO)NC(=O)[C@H](CC(N)=O)NC(=O)[C@H](CC(C)C)NC(=O)[C@@H](NC(=O)[C@H](Cc1c[nH]c2ccccc12)NC(=O)CN)[C@@H](C)O)C(N)=O` [Gal(1-13)-Std I] (H-GWTLNSAGYLLGP[dR]PKPQQ[dW]F[dW]LL-NH2) showed an inhibition constant Ki of 9.1 nM. This lies in the single-digit nanomolar range.
As to “H-ELEPEDEARPGGFDRLQSQDKAIRTIMEFLAFLHLKEAGAL-NH2 [GMAP (1-41)]”, affinity was put at a Ki of 840 nM.
Consider H-GWTLNSAGYLLGPPPALALA-NH2 [M40], for which the Ki was determined as 18 nM.
